Results on 2 compounds are retold here after publication PMC12595434, “Development of retinoid nuclear receptor pathway antagonists through targeting aldehyde dehydrogenase 1A3” (iScience, 2025).

The test system of one series is LN229 cells. Kind of series: Metabolomic profiling of treated cell lines (raw metabolite counts). It is filed as cell-based, human. The following applies: LN229:MBE, replicates. The text has this:
Supplement mmc8.xlsx, sheet "Supplement Table 7" | column: LN229:MBE

Series [1] relates to human ALDH1A3 in MCF7-ALDH1A3 cells. The series is described as follows: STRA6 qPCR retinoid inhibition assay in MCF7-ALDH1A3 cells. The following applies: for IC50: 24 h, read-out: cellular IC50 for ALDH1A3, STRA6 mRNA; for EC50: read-out: EC50 cellular, human ALDH1A3.
A further series has as its target LCK (Homo sapiens, UniProt P06239). Kind of series: Off-target profiling panel. As to conditions: read-out: Inhibition by MBE1 at 10 μM (%). Type of series: biochemical.
The target of the next series is 5HT2A (Homo sapiens, UniProt P28223). Kind of series: Off-target profiling panel. It is filed as binding. The following applies: read-out: Inhibition by MBE1 at 10 μM (%).
The target of another series is AR (Homo sapiens, UniProt P10275). Kind of series: Off-target profiling panel. It is filed as binding. As to conditions: read-out: Inhibition by MBE1 at 10 μM (%).
A further series has as its target T1, RHPN2 (Homo sapiens, UniProt Q8IUC4).
T1 construct: Treated A375 cells were harvested from 10 × 15 cm plates; endogenous in cells; host or cells: A375 melanoma cells
The series is described as follows: Thermal proteome profiling (TPP) in A375 cells. The following applies: RHPN2, 100 nM. Type of series: cell-based.

In another series the target is Alpha2A (Homo sapiens, UniProt P08913). Kind of series: Off-target profiling panel. It is filed as binding. As to conditions: read-out: Inhibition by MBE1 at 10 μM (%).
Another series deals with Alpha1A (Homo sapiens, UniProt P35348). Kind of series: Off-target profiling panel. It is filed as binding. The following applies: read-out: Inhibition by MBE1 at 10 μM (%).
In the next series the target is hKCNQ1 (Homo sapiens, UniProt P51787). The series is described as follows: Off-target profiling panel. Type of series: cell-based. As to conditions: read-out: Inhibition by MBE1 at 10 μM (%).
The test system of series [2] is panel of 23 human cancer cell lines. The series is described as follows: Aldefluor assay, panel of 23 human cancer cell lines. Type of series: cell-based. As to conditions: 100 nM; most solid cancer types except liver cancer. The method, then:
To determine the breadth of ALDH1A3 activity across human cancers and assess the target engagement of these discovered compounds across tumor models, we profiled a panel of 23 human cancer cell lines with the Aldefluor assay. […] Next, we assessed whether ALDH1A3 affects cell growth across this broad panel of cancer types by testing proliferation for each cell line with and without MBE1.5.
In addition, cells were suspended at a concentration of 100,000 cells per mL. Finally, DMSO was added to at 1% final in all cells to improve kinetics of the assay. For compound titrations, concentrated compound stock was added first to tubes and a uniform Aldefluor buffer containing the cell suspension was added to dilute to final volumes. Cells were analyzed by a BD LSRII for flow cytometry and were sorted using a FACSAria Fusion cell sorter (BD Biosciences) equipped with a 70 micron nozzle. Sample and sort collection tubes were kept at 4°C. […] DAPI was used as a live-dead indicator.

Series [3] in a line: 7-day repeat-dose study, oral gavage. The following applies: 50 mg/kg twice daily oral gavage. It is filed as in vivo, mouse. As to the method:
In order to accommodate in vivo dosing and to also determine any potential toxic effects of MBE1.5, we performed a 7-day repeat-dose study administering a suspension of MBE1.5 at 50 mg/kg twice daily via oral gavage.
Finally, to establish a pharmacokinetic profile throughout dosing, MBE1.5 was analyzed in serum 12 h post dose on day 1 and day 7. […] To accommodate consistent plasma concentrations without accumulation, MBE1.5 was formulated to a lower concentration in mouse diet that would administer a dose equivalent to 25 mg/kg daily. This formulated diet was provided to mice for 5 days, at which point serum was analyzed for MBE1.5 concentration at 6:30 a.m. and 4:00 p.m. on day 5 to capture differences in mouse feeding cycles.
Figure S5. Specificity, tolerability and pharmacokinetic analysis of MBE1.5 in […]
MCF7 or SUM159 cells and a dose titration of MBE1.5 was performed against each cell line in the Aldelfuor assay to confirm ALDH1A3 isoform specificity for MBE1.5. n= 3 […]
proteome profiling in A375 cells was performed in DMSO and at two concentrations of MBE1 using a 10 temperature melting curve for isolation, followed by proteomic analysis, filtering and mapping peptide frequency as a composite melting curve, n=3 biological replicates per condition-temperature. […] ALDH1A3 or NPTN were assessed by WB to confirm the stabilization of ALDH1A3 but not NPTN (55kD, as indicated by arrow) by MBE1. […]
analysis of MBE1.5 following identification of proper formulations and administration to fasted male CD1 mice at 1 mg/kg intravenous (IV) and 10 mg/kg oral gavage (PO). n = 3 mice per arm. G-I, MBE1.5 administered as a suspension to C57BL/6 male mice via bi-daily PO administration for seven days as compared to the vehicle was tracked for body weight (G), complete blood count at day 7 (H) and plasma concentrations of MBE1.5 were analyzed at 12 hours post Day 1 dosing and 12 hours following the last dose (I). n = 4 male mice per arm. […] Upon acclimation, serum MBE1.5 concentrations were calculated following blood draws at 6:30 am and 4 pm. n = 5 mice per arm. […]

The structures appear in SMILES notation. “And” between values parts separate entries of the source, which are not always exact repeats. Equal entries are not always repeated.

T1 sequence (Q8IUC4 whole entry): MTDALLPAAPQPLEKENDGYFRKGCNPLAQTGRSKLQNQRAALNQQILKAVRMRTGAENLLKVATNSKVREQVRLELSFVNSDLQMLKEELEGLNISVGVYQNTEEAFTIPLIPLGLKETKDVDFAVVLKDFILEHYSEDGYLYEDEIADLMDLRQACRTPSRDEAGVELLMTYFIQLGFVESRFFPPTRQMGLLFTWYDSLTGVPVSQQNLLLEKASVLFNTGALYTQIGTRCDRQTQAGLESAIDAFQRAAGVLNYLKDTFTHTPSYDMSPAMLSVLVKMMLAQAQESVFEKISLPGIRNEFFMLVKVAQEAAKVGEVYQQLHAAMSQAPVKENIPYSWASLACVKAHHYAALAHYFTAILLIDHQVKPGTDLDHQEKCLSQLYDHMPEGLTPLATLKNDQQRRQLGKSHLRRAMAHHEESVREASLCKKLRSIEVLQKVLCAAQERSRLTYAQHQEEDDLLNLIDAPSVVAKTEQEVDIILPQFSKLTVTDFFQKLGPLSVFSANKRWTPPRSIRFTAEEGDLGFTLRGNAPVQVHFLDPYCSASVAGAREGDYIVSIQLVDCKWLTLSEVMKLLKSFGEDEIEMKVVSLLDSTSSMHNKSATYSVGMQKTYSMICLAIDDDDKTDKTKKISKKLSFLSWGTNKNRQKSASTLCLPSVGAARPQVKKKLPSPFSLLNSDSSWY
Chain of Alpha1A (P35348 whole entry): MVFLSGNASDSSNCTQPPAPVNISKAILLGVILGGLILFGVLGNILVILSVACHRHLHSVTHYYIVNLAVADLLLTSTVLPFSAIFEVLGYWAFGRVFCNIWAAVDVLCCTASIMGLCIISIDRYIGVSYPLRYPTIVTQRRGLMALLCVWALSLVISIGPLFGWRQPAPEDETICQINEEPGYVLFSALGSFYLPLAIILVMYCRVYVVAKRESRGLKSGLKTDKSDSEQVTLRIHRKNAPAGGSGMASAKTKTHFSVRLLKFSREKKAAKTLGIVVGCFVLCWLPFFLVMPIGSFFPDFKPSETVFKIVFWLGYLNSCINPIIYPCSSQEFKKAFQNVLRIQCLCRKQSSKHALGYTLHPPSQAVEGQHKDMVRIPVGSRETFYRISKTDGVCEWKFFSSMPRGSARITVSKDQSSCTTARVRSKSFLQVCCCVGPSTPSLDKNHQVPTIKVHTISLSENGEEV
Chain of LCK (P06239 whole entry): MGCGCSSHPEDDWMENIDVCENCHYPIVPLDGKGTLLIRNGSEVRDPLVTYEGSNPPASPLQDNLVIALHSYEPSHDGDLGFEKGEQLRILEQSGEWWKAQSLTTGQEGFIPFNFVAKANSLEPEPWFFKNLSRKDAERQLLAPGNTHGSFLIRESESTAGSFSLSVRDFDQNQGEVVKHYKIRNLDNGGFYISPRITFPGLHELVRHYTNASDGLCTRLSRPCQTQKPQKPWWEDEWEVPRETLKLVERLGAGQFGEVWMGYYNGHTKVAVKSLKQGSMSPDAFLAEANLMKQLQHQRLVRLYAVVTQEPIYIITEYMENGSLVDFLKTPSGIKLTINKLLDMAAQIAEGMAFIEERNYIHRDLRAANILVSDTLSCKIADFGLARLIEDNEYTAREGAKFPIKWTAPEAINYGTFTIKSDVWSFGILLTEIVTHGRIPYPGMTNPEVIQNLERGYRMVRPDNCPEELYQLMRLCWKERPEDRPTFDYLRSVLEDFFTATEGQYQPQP
Chain of AR (P10275 whole entry): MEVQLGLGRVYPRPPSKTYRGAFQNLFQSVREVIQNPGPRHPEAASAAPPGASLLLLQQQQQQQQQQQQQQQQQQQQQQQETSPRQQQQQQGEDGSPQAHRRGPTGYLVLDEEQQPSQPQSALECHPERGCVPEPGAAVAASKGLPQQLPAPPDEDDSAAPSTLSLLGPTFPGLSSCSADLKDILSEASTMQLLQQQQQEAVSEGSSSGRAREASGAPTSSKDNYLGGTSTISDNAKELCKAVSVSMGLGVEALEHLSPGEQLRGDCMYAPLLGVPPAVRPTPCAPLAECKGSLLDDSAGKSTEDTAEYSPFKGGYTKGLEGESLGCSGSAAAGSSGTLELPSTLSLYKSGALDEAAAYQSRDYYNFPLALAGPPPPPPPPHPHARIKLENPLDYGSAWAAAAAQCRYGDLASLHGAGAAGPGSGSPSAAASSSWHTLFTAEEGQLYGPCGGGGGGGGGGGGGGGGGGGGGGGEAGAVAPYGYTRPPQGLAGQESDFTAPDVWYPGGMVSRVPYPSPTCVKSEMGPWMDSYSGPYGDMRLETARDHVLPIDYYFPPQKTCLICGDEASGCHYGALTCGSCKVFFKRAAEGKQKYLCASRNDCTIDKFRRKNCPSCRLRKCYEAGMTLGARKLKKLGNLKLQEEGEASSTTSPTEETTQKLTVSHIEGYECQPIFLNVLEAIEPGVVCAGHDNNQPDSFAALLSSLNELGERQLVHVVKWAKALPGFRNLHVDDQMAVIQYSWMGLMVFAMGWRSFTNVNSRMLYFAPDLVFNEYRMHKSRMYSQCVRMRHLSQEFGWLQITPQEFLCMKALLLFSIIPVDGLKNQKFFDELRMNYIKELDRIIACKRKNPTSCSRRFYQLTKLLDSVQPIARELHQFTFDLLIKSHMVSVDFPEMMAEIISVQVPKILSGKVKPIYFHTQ
Chain of Alpha2A (P08913 whole entry): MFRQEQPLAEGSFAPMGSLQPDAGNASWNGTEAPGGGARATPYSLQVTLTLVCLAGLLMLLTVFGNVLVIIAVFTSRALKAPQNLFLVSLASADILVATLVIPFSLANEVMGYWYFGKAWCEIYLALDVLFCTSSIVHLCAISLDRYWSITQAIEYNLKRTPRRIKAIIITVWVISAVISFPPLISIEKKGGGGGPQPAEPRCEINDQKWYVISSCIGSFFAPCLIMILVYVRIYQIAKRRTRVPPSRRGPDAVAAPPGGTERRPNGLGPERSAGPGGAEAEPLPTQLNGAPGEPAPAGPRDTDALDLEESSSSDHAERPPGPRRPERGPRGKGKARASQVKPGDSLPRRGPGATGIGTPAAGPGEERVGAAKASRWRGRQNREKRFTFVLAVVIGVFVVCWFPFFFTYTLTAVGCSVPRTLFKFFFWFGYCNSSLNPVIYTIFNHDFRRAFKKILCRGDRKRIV
Chain of 5HT2A (P28223 whole entry): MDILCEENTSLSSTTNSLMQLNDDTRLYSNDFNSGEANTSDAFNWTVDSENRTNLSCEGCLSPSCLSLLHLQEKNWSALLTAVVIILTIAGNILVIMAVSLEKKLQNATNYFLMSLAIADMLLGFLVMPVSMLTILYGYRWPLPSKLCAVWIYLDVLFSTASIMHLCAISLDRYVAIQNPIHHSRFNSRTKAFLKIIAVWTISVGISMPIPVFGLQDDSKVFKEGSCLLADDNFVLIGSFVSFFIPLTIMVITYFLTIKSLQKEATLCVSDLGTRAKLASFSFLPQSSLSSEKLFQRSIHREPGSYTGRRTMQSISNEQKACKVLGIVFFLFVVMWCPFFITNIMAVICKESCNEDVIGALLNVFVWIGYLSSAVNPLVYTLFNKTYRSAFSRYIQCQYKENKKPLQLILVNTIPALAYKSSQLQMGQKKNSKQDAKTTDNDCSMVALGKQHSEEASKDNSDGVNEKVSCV

Usually IC50 stands for the concentration that inhibits the measured activity by half. By EC50 is commonly meant the concentration that produces a half-maximal response. As a reminder, the inhibition is the change of the read-out against control, counted positive when it falls. For the compound `CCc1cnccc1C(=O)Nc1cc2c(cc1F)NC(=O)CC2` [MBE1, 3-ethyl-N-(7-fluoro-2-oxo-3,4-dihydro-1H-quinolin-6-yl)pyridine-4-carboxamide], in the series with LN229 cells, the “Raw counts of 2-Hydroxybutyric acid” value is 261573 and 302862 and 279756; the “Raw counts of 3-Hydroxybutyric acid” value is 1309454 and 1164963 and 1206122; the “Raw counts of 3-Phosphoglycerate” value is 11596.7 and 6745.18 and 3724.31; the “Raw counts of 3-Phosphoserine” value was 6232.78 and 2797.63 and 5215.65. In the series with LN229 cells, the “Raw counts of 6-Phosphogluconate” value is 5157.27 and 5734.83 and 2668.31; the “Raw counts of Carbamoyl phosphate” value was 45195.2 and 38665.3 and 41961.6; the “Raw counts of Citrulline” value is 498544 and 479590 and 504161; the “Raw counts of Cytidine” value is 67589.2 and 84265.7 and 71881.1. In the series on LN229 cells, the “Raw counts of Hypoxanthine” value is 1333474 and 1740688 and 1516660; the “Raw counts of Isoleucine” value was 1.29E+08 and 1.33E+08 and 1.18E+08; the “Raw counts of Lactate” value is 3.62E+08 and 3.37E+08 and 3.31E+08; the “Raw counts of Leucine” value was 1.02E+08 and 1.11E+08 and 1.01E+08. In addition, in the series on LN229 cells, the “Raw counts of Methionine” value is 1.89E+07 and 2.12E+07 and 1.99E+07; the “Raw counts of N-acetyl-glutamine” value was 31448.3 and 20555.9 and 36320.3; the “Raw counts of Orotate” value is given as 0; the “Raw counts of Phenylalanine” value is 7.59E+07 and 8.45E+07 and 7.68E+07. Also, in the series with LN229 cells, the “Raw counts of Phosphoenolpyruvate” value is 0 and 2071.2 and 2356.81; the “Raw counts of Pyridoxine” value is 4.91E+07 and 5.30E+07 and 4.89E+07; the “Raw counts of Pyruvate” value is 2231037 and 2192759 and 1890595; the “Raw counts of Ribitol” value was 1641581 and 2032681 and 3007411. Moreover, in the series on LN229 cells, the “Raw counts of Sorbitol” value was 2.02E+07 and 2.14E+07 and 2.12E+07; the “Raw counts of Taurine” value was 1.22E+07 and 1.24E+07 and 1.15E+07; the “Raw counts of Tryptophan” value is 1.21E+07 and 1.27E+07 and 1.15E+07; the “Raw counts of Tyrosine” value is 4.34E+07 and 4.46E+07 and 4.65E+07. Moreover, in the series with LN229 cells, the “Raw counts of UDP” value was 108325 and 86766.9 and 84670.8; the “Raw counts of Uracil” value is 1116835 and 1114912 and 1017401; the “Raw counts of Uridine” value is 932418 and 1052824 and 956012; the “Raw counts of Valine” value is 6.74E+07 and 7.26E+07 and 6.71E+07. The “Raw counts of Xanthine” value in the series on LN229 cells is 9846835 and 1.10E+07 and 1.04E+07. In addition, in series [1], the IC50 came out at 3.67 nM and the EC50 is 3.67 nM. Further, the inhibition at 10 µM on LCK was -2.81%. The inhibition at 10 µM at 5HT2A is -16.1%. At AR, the inhibition at 10 µM was -10.1%. At RHPN2, the “100nM MBE1 Tm” value is 58.0062 and the “DMSO-100nM MBE1 TM” value is -9.514. The inhibition at 10 µM on Alpha2A is -1.15%. Besides, the inhibition at 10 µM at Alpha1A was -3.34%. Also, the inhibition at 10 µM at hKCNQ1 came to 11.9%.
Turning to `CCc1ccccc1C(=O)Nc1cc2c(cc1F)NC(=O)CC2` [MBE1.5, 2-ethyl-N-(7-fluoro-2-oxo-3,4-dihydro-1H-quinolin-6-yl)benzamide], the “inhibition of Aldefluor activity across cancer cell line panel (in words)” value in series [2] is listed as “potently inhibited Aldefluor activity”. Further, in [1], the IC50 is < 1 nM and the EC50 came to 0.53 nM. Moreover, the “serum level 12 h post dose, day 1 vs day 7 (in words)” value in series [3] is reported as “accumulated”. Besides, in series [3] (7 days, C57BL/6 male mice), the “body weight vs vehicle (in words)” value is “no difference”. The “blood profile (complete blood count) vs vehicle (in words)” value in series [3] (day 7) is given as “no detectable difference”.
